From ChEMBL document CHEMBL4616617, “Two Decades of Successful SAR-Grounded Stories of the Novel Bacterial Topoisomerase Inhibitors (NBTIs)” (J Med Chem, 2020) come the findings set out here.

Each structure is given as a SMILES string.

In one test the target is Topoisomerase IV (Staphylococcus aureus, UniProt P0C1S7+P0C1U9). As to the kind of experiment: Inhibition of Staphylococcus aureus RN4220 DNA topoisomerase 4 expressed in Escherichia coli BL21(DE3) cells using supercoiled pBR322 DNA as substrate by agarose gel electrophoresis method.
Sequence of Topoisomerase IV (P0C1U9 whole entry): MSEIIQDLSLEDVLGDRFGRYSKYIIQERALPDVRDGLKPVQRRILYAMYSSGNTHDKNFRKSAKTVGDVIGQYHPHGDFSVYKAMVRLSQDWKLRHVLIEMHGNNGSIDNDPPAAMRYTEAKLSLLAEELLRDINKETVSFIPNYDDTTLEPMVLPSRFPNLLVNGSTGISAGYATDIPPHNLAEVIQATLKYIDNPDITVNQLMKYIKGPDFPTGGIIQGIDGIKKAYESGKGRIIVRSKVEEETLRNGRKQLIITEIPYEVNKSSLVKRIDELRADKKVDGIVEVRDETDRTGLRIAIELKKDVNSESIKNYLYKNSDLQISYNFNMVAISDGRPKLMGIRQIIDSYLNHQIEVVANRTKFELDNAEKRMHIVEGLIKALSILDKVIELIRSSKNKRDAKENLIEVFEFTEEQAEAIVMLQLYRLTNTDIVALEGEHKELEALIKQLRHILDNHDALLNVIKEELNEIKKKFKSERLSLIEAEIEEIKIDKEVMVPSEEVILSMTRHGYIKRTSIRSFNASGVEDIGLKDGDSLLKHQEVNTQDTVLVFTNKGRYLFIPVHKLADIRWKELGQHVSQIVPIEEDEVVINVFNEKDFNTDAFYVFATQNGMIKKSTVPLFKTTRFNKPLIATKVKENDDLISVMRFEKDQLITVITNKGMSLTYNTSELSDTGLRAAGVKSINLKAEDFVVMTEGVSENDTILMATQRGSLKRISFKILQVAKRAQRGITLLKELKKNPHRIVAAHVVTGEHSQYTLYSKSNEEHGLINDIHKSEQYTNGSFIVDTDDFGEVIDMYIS
Sequence of Topoisomerase IV (P0C1S7 whole entry): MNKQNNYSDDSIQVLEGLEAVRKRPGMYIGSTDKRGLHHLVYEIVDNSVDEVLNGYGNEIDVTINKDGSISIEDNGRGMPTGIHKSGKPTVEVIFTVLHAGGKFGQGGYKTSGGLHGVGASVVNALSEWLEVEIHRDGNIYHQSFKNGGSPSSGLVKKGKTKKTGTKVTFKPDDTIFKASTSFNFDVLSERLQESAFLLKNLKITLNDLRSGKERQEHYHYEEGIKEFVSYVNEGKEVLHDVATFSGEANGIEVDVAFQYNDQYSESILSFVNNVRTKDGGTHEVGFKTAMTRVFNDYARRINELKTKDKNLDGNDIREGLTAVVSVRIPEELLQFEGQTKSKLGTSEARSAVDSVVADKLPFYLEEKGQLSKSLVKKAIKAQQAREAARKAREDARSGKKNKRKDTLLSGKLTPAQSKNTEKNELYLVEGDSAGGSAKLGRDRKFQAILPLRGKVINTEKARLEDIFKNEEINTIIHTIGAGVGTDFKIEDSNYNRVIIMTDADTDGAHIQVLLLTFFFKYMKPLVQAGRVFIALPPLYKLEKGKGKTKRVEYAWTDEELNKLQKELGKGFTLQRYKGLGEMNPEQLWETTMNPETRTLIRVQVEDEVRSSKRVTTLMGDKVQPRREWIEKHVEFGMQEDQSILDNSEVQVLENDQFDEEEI
A short description of test [1]: Inhibition of Escherichia coli DNA topoisomerase 4 using supercoiled pBR322 DNA as substrate by agarose gel electrophoresis method.
Test [2] can be described thus: Inhibition of Staphylococcus aureus N-terminal His6-tagged DNA gyrase B expressed in Escherichia coli BL21(DE3) cells using relaxed pBR322 DNA as substrate incubated for 1 hr by agarose gel electrophoresis method.
Test [3] has as its system Staphylococcus aureus. As to the kind of experiment: Antibacterial activity against Staphylococcus aureus assessed as reduction in microbial growth after 18 hrs by NCCLS based method. It counts as functional.
The test system of test [4] is Escherichia coli. As to the kind of experiment: Antibacterial activity against levofloxacin-susceptible Escherichia coli assessed as reduction in microbial growth by CLSI based broth microdilution method. It counts as functional.
Test [5] relates to Streptococcus pneumoniae. The experiment in a line: Antibacterial activity against penicillin-intermediate Streptococcus pneumoniae assessed as reduction in microbial growth by CLSI based broth microdilution method. Format: functional.
In test [6] the test system is Streptococcus pneumoniae. The experiment in a line: Antibacterial activity against penicillin-susceptible Streptococcus pneumoniae assessed as reduction in microbial growth by CLSI based broth microdilution method. Format: functional.
The test system of test [7] is Streptococcus pneumoniae. The experiment in a line: Antibacterial activity against Streptococcus pneumoniae assessed as reduction in microbial growth by CLSI based broth microdilution method. Format: functional.
Test [8] has as its system Streptococcus pneumoniae. The experiment in a line: Antibacterial activity against penicillin-resistant Streptococcus pneumoniae assessed as reduction in microbial growth by CLSI based broth microdilution method. Format: functional.
Test [9] concerns Staphylococcus aureus. As to the kind of experiment: Antibacterial activity against Staphylococcus aureus assessed as reduction in microbial growth by CLSI based broth microdilution method. Format: functional.
Another test has as its system Haemophilus influenzae. As to the kind of experiment: Antibacterial activity against Haemophilus influenzae assessed as reduction in microbial growth by CLSI based broth microdilution method. It counts as functional.
Test [10] has as its system Escherichia coli. As to the kind of experiment: Antibacterial activity against levofloxacin-nonsusceptible Escherichia coli assessed as reduction in microbial growth by CLSI based broth microdilution method. Format: functional.
Test [11] deals with Staphylococcus aureus. As to the kind of experiment: Antibacterial activity against levofloxacin-resistant Staphylococcus aureus assessed as reduction in microbial growth by CLSI based broth microdilution method. Format: functional.
In test [12] the test system is Escherichia coli. As to the kind of experiment: Antibacterial activity against Escherichia coli assessed as reduction in microbial growth by CLSI based broth microdilution method. It counts as functional.
For test [13], the system named is Staphylococcus aureus. As to the kind of experiment: Antibacterial activity against methicillin-sensitive Staphylococcus aureus assessed as reduction in microbial growth by CLSI based broth microdilution method. Format: functional.
The subject of test [14] is Streptococcus pneumoniae. The experiment in a line: Antibacterial activity against levofloxacin-nonsusceptible Streptococcus pneumoniae assessed as reduction in microbial growth by CLSI based broth microdilution method. Format: functional.
For another test, the system named is Neisseria gonorrhoeae. The experiment in a line: Antibacterial activity against Neisseria gonorrhoeae assessed as reduction in microbial growth by agar dilution method. It counts as functional.
For test [15], the system named is Staphylococcus aureus. As to the kind of experiment: Antibacterial activity against methicillin-resistant Staphylococcus aureus assessed as reduction in microbial growth by CLSI based broth microdilution method. Format: functional.
Test [16] deals with Escherichia coli. The experiment in a line: Antibacterial activity against Escherichia coli ATCC 25922 assessed as reduction in microbial growth by CLSI based broth microdilution method. It counts as functional.
Test [17] deals with Staphylococcus aureus. As to the kind of experiment: Antibacterial activity against Staphylococcus aureus A798 assessed as reduction in microbial growth by CLSI based broth microdilution method. Format: functional.

As for `COc1ccc2ncc(F)c([C@@H](O)CC[C@@H]3CCN(CCSc4cccs4)C[C@@H]3C(=O)O)c2c1`, the IC50 on Topoisomerase IV worked out at 300 nM; in [1] it was 200 nM; in test [2], 1000 nM. Moreover, the MIC in the test with Staphylococcus aureus [3] is 0.12 to 1 µg/mL.
Take `O=c1ccc2ncc(=O)n3c2n1C[C@H]3CN1CCC(NCc2cc3c(cn2)OCCC3)CC1` [GEPOTIDACIN]: the MIC90 with Escherichia coli [4] stood at 2 µg/mL; in the test on Streptococcus pneumoniae [5], 0.25 µg/mL; in the test on Streptococcus pneumoniae [6], 0.25 µg/mL; in the test with Streptococcus pneumoniae [7], 0.25 µg/mL; in the test with Streptococcus pneumoniae [8], 0.25 µg/mL; in the test on Staphylococcus aureus [9], 0.5 µg/mL. For the same compound, the MIC90 in the test with Haemophilus influenzae was 1 µg/mL; in the test with Escherichia coli [10] it was 2 µg/mL; in the test on Staphylococcus aureus [11], 0.5 µg/mL; with Escherichia coli [12], 2 µg/mL; in the test with Staphylococcus aureus [13] it was 0.5 µg/mL; in the test with Streptococcus pneumoniae [14], 0.25 µg/mL. Further, the MIC90 with Neisseria gonorrhoeae was 0.25 µg/mL; in the test on Staphylococcus aureus [15], 0.5 µg/mL.
As to `CN1CC(Oc2cccc(-c3cccc(CNCC[C@@H]4CN(c5ccc6c(n5)NC(=O)CO6)C(=O)O4)c3)n2)C1`, the MIC in the test with Escherichia coli [16] and in the test with Staphylococcus aureus [17] was 0.25 µg/mL throughout.
